target: T1, glutathione S-transferase (GST)-fused full-length human Syk protein (Homo sapiens, UniProt P43405); assay: Syk enzyme assay; type: biochemical; conditions: Syk enzyme assay, Test Example 1; read-out: IC50 of Syk-inhibitory activity
T1 construct: (GST)-fused full-length human Syk protein; GST (glutathione S-transferase); purchased Carna Biosciences
In short: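 GST-tagged full-length human Syk (baculovirus) preincubated with compound 15 min at room temperature (pH 7.0, 10 mM MgCl2), then reacted 40 min with 0.4 μM biotinylated peptide substrate and 27 μM ATP (final). Phosphorylation read by HTRF (615/665 nm) after EDTA stop; IC50 reported.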

Compound | IC50
NC(=O)c1cc(F)c(NC2CCCCC2N)nc1Nc1cncc(-c2cccc3cccnc23)c1 (stereo not drawn) [Example 002-181] | 50 to 100 nM
NC(=O)c1cc(F)c(NC2CCCCC2N)nc1Nc1ccnc(-c2cccc3cccnc23)c1 (stereo not drawn) [Example 002-182] | 100 to 1000 nM
COc1cccc(-c2cc(Nc3nc(NC4CCCCC4N)c(F)cc3C(N)=O)ccn2)c1 (stereo not drawn) [Example 002-183] | < 10 nM
COc1ccc(-c2cc(Nc3nc(NC4CCCCC4N)c(F)cc3C(N)=O)ccn2)cc1 (stereo not drawn) [Example 002-184] | < 10 nM
NC(=O)c1cc(F)c(NC2CCCCC2N)nc1Nc1ccnc(-c2ccc3cccnc3c2)c1 (stereo not drawn) [Example 002-192] | < 10 nM
NC(=O)c1cc(F)c(NC2CCCCC2N)nc1Nc1ccnc(-c2ccc3ccncc3c2)c1 (stereo not drawn) [Example 002-194] | < 10 nM
NC(=O)c1cc(F)c(NC2CCCCC2N)nc1Nc1cnc2oc3ccccc3c2c1 (stereo not drawn) [Example 002-195] | < 10 nM
Cn1cc(Nc2nc(NC3CCCCC3N)c(F)cc2C(N)=O)ccc1=O (stereo not drawn) [Example 002-202] | 100 to 1000 nM
COc1ncc(Nc2nc(NC3CCCCC3N)c(F)cc2C(N)=O)cc1Cl (stereo not drawn) [Example 002-203] | 10 to 50 nM
NC(=O)c1cc(F)c(N[C@@H]2CCCC[C@@H]2N)nc1Nc1cncnc1 [Example 004-001] | 100 to 1000 nM
NC(=O)c1cc(F)c(N[C@@H]2CCCC[C@@H]2N)nc1Nc1cccc2c1CNC2=O [Example 004-009] | < 10 nM
CNC(=O)c1cncc(Nc2nc(N[C@@H]3CCCC[C@@H]3N)c(F)cc2C(N)=O)c1 [Example 004-010] | 10 to 50 nM
CN(C)C(=O)c1cncc(Nc2nc(N[C@@H]3CCCC[C@@H]3N)c(F)cc2C(N)=O)c1 [Example 004-015] | 100 to 1000 nM
NC(=O)c1cc(F)c(N[C@@H]2CCCC[C@@H]2N)nc1Nc1cnc2nccnc2c1 [Example 004-021] | 100 to 1000 nM
CC(=O)N(C)c1cccc2cc(Nc3nc(N[C@@H]4CCCC[C@@H]4N)c(F)cc3C(N)=O)cnc12 [Example 004-034] | 50 to 100 nM
NC(=O)c1cc(F)c(N[C@@H]2CCCC[C@@H]2N)nc1Nc1ccnc2c1ccn2-c1ccccc1 [Example 004-038] | < 10 nM
NC(=O)c1cc(F)c(N[C@@H]2CCCC[C@@H]2N)nc1Nc1cncc(Oc2ccccc2)c1 [Example 004-041] | 50 to 100 nM
NC(=O)c1cc(F)c(N[C@H](Cc2ccccc2)C(N)=O)nc1Nc1ccnc2c1ccn2CCN1CCOCC1 [Example 004-045] | 10 to 50 nM
CC(=O)Nc1cccc2cc(Nc3nc(N[C@H](Cc4ccccc4)C(N)=O)c(F)cc3C(N)=O)cnc12 [Example 004-047] | 10 to 50 nM
NC(=O)c1cc(F)c(N[C@H](Cc2ccccc2)C(N)=O)nc1Nc1ccnc2[nH]ccc12 [Example 004-063] | < 10 nM

Compound | IC50
Cn1ccc2c(Nc3nc(N[C@@H]4CCCC[C@@H]4N)c(F)cc3C(N)=O)cc(C(F)(F)F)cc21 [Example 004-086] | < 10 nM
NC(=O)c1cc(F)c(N[C@@H]2CCCC[C@@H]2N)nc1Nc1cc(C(F)(F)F)cc2c1ccn2CCN1CCOCC1 [Example 004-087] | < 10 nM
COCCn1ccc2c(Nc3nc(N[C@@H]4CCCC[C@@H]4N)c(F)cc3C(N)=O)cc(C(F)(F)F)cc21 [Example 004-088] | < 10 nM
NC(=O)c1cc(F)c(N[C@@H]2CCCC[C@@H]2N)nc1Nc1cncc(N2CCCC2=O)c1 [Example 004-107] | 10 to 50 nM
CCOC(=O)c1c(F)cc2c(Nc3nc(N[C@@H]4CCCC[C@@H]4N)c(F)cc3C(N)=O)cccn12 [Example 004-115] | < 10 nM
COCCNc1cccc2cc(Nc3nc(N[C@@H]4CCCC[C@@H]4N)c(F)cc3C(N)=O)cnc12 [Example 004-122] | < 10 nM
CN(C)c1ccc2cc(Nc3nc(N[C@@H]4CCCC[C@@H]4N)c(F)cc3C(N)=O)cnc2c1 [Example 004-126] | 10 to 50 nM
CCOCCOCCNc1cccc2cc(Nc3nc(N[C@@H]4CCCC[C@@H]4N)c(F)cc3C(N)=O)cnc12 [Example 004-133] | 10 to 50 nM
C[C@@H]1CN(c2cncc(Nc3nc(N[C@@H]4CCCC[C@@H]4N)c(F)cc3C(N)=O)c2)C[C@H](C)O1 [Example 004-180] | 10 to 50 nM
NC(=O)c1cc(F)c(N[C@@H]2CCCC[C@@H]2N)nc1Nc1cncc(-c2ccccc2OCC2CC2)c1 [Example 004-184] | 10 to 50 nM
NC(=O)c1cc(F)c(N[C@@H]2CCCC[C@@H]2N)nc1Nc1ccn2cnnc2c1 [Example 004-212] | 10 to 50 nM
CC(=O)Nc1cccc(-c2cncc(Nc3nc(N[C@@H]4CCCC[C@@H]4N)c(F)cc3C(N)=O)c2)c1 [Example 004-223] | < 10 nM
CC(=O)Nc1ccc(-c2cncc(Nc3nc(N[C@@H]4CCCC[C@@H]4N)c(F)cc3C(N)=O)c2)cc1 [Example 004-224] | < 10 nM
COc1cc(Nc2nc(N[C@@H]3CCCC[C@@H]3N)c(F)cc2C(N)=O)cnc1N1CCOCC1 [Example 004-233, 6-(((1R,2S)-2-aminocyclohexyl)amino)-5-fluoro-2-((5-methoxy-6-morpholinopyridin-3-yl)amino)nicotinamide] | 100 to 1000 nM
NC(=O)c1cc(F)c(N[C@@H]2CCCC[C@@H]2N)nc1Nc1cnc(N2CCOCC2)c2[nH]ccc12 [Example 004-234, 6-(((1R,2S)-2-aminocyclohexyl)amino)-5-fluoro-2-((7-morpholino-1H-pyrrolo[2,3-c]pyridin-4-yl)amino)nicotinamide] | 10 to 50 nM
NCCNc1nc(Nc2cccc(Cl)c2)c(C(N)=O)cc1F [Example 006-006, 6-((2-aminoethyl)amino)-2-(3-chlorophenylamino)-5-fluoronico-tinamide] | 100 to 1000 nM
NCCNc1nc(Nc2cc(Cl)cc(Cl)c2)c(C(N)=O)cc1F [Example 006-007, 6-((2-aminoethyl)amino)-2-((3,5-dichlorophenyl)amino)-5-fluoro-nicotinamide] | 50 to 100 nM
CCNc1nc(Nc2ccc3cn[nH]c3c2)c(C(N)=O)cc1F [Example 006-018, 6-(ethylamino)-5-fluoro-2-((1H-indazol-6-yl)amino)nicotinamide] | 50 to 100 nM
CCNc1nc(Nc2cnc3ccccc3c2)c(C(N)=O)cc1F [Example 006-020, 6-(ethylamino)-5-fluoro-2-(quinolin-3-ylamino)nicotinamide] | 100 to 1000 nM

same assay, conditions: read-out: Syk-inhibitory activity (IC50)

Compound | IC50
Cc1cccc(Nc2nc(NCCN)c(F)cc2C(N)=O)c1 [Example 6-2, 6-((2-aminoethyl)amino)-5-fluoro-2-(3-methylphenylamino)nico-tinamide] | ≤ 1000 nM
CCNc1nc(Nc2ccc3cn[nH]c3c2)c(C(N)=O)cc1F [Example 6-18, 6-(ethylamino)-5-fluoro-2-((1H-indazol-6-yl)amino)nicotinamide] | ≤ 1000 nM
CCNc1nc(Nc2cnc3ccccc3c2)c(C(N)=O)cc1F [Example 6-20, 6-(ethylamino)-5-fluoro-2-(quinolin-3-ylamino)nicotinamide] | ≤ 1000 nM
Cc1nc2ccc(Nc3nc(NCCN)c(F)cc3C(N)=O)cc2s1 [Example 6-21, 6-((2-aminoethyl)amino)-5-fluoro-2-((2-methylbenzo[d]thiazol-6-yl)amino)nicotinamide] | ≤ 1000 nM
Cc1nc2ccc(Nc3nc(NCCN)c(F)cc3C(N)=O)cc2o1 [Example 6-23, 6-((2-aminoethyl)amino)-5-fluoro-2-((2-methylbenzo[d]oxazol-6-yl)amino)nicotinamide] | ≤ 1000 nM
CC(=O)Nc1cccc(Nc2nc(NCCN)c(F)cc2C(N)=O)c1 [Example 6-24, 2-((3-acetylaminophenyl)amino)-6-((2-aminoethyl)amino)-5-fluoronicotinamide] | ≤ 1000 nM
